Laboratory results as given in patent US20100093804A1, “NOVEL CRYSTALLINE FORM OF LANSOPRAZOLE” (HETERO DRUGS LIMITED, priority 2006, published 2010).
Read-outs that look alike come from different tables or passages of the source. Values belong to the compound of their own block, whether it stands above or below them.

Legend:
[1] = solid-solid transition to form A; cited from earlier work
[2] = cited from earlier work
[3] = stability of the crystalline form over time; type: physicochemical

SMILES: Cc1c(OCC(F)(F)F)ccnc1C[S+]([O-])c1nc2ccccc2[nH]1 (stereo not shown) [crystalline lansoprazole form B, 2-[[[3-Methyl-4-(2,2,2-trifluoro-ethoxy)-2-pyridinyl]methyl]sulfinyl]-1H-benzimidazole]
stability of crystalline form [1]: unstable

SMILES: Cc1c(OCC(F)(F)F)ccnc1C[S+]([O-])c1nc2ccccc2[nH]1 (stereo not shown) [lansoprazole crystalline form II, 2-[[[3-Methyl-4-(2,2,2-trifluoro-ethoxy)-2-pyridinyl]methyl]sulfinyl]-1H-benzimidazole]
stability of crystalline form on storage ([2]; after some period of sample storage at higher temperatures): converted to stable crystalline form I | stability of crystalline form ([2]; at temperatures below 0° C.): stable

stability of crystalline form [3]: stable
SMILES: Cc1c(OCC(F)(F)F)ccnc1C[S+]([O-])c1nc2ccccc2[nH]1 (stereo not shown) [lansoprazole form III, 2-[[[3-Methyl-4-(2,2,2-trifluoro-ethoxy)-2-pyridinyl]methyl]sulfinyl]-1H-benzimidazole]
